Values joined by “and” are separate entries in the source; they are usually repeats but may differ in a detail not shown here. Identical values can stand only once. “Also recorded” adds a separate entry of the source.
Key:
Format in all cases: physicochemical
[1] = Drug solubilization by salt formation in acid; conditions: T in °C in parentheses in the cell (20.1 or 21.1)
Protocol: The base form of each drug was suspended in deionized water and titrated with 0.1 N hydrochloric acid (Fisher Scientific, Hampton, NH) while stirring until all the base was solubilized and the volume adjusted to a final concentration of 2.5 mg/mL. The resulting solution was frozen, then lyophilized to yield solid drug-hydrochloride salt or used in its solubilized form for loading into DC Bead LUMI. […] Doxorubicin.HCl was readily solubilized and used without modification. […] A ZORBAX Eclipse Plus C8 reversed-phase column (Agilent) and UV detector at wavelength of 230 nm were used for GS-9620 analysis. The decomposition product of GS-9620 was analyzed with reversed phase high-performance liquid chromatography (Rp-HPLC) and LC/MS.

[2] = Washing of drug-loaded beads with deionized water and microscopic appearance
Protocol: (§1) Drug loading was performed in triplicate as previously reported[45] with slight modifications. […] Washing of beads is often a critical step in drug release studies as any drug left unbound to the beads affects the release profile and exaggerates the early burst release. […] However, washing was discontinued for TLR drugs as drug was continually observed even after multiple washes. […] The amount of drug loaded at the specified time points was calculated by subtracting the amount of drug remaining from the initial amount of drug in the loading solution and the cumulative amount of drug withdrawn for sampling. The maximum drug loaded in the beads was calculated once no further change in the concentration in the loading solution could be measured and before washing the beads. The relative percent drug loaded was defined as the maximum amount of drug loaded as a percent of the amount of SO3^- ions available in the beads on a molar basis using the following formula and the results are presented as the mean ± SD.

[3] = Drug release from DC Bead LUMI in saline; conditions: for release in saline from DC Bead LUMI after multiple washes in deionized water: single replicates
Protocol: […] Briefly, drug-loaded DC Bead LUMI or LC Bead (62.5 µL) were placed in vessels with 50 mL of saline ([…], pH 7.4) and were agitated with upright rocking motion at a set maximum rocking speed of 10 (70 rpm) for 144 h at 37 °C using Ward's® Rotating Mixer. At scheduled time intervals identical to the loading time points, 1 mL of release media was withdrawn and used for drug quantification. To maintain 50 mL total elution volume, 1 mL of fresh saline pre heated to 37 °C was replaced at each timepoint. […] 2.4. The cumulative amount of drug released at each time point was calculated by multiplying the concentration of each sample aliquot by the total volume (50 mL) of release media and adding the sum of the amount of drug removed for sampling at prior time points. […] The 50 mL volume was chosen to ensure infinite sink conditions where the maximum possible concentration of eluted drug would be at least 10 times more dilute than the maximum solubility. This ensures the rate of release is not affected by solution concentration but is only a function of interactions of the bead, drug, and saline.

[4] = Drug loading into DC Bead LUMI
Protocol: as §1, with “DC Bead LUMI was analyzed for its elemental composition by MEDAC Inc. […] Drug” for “Drug”

Structure (SMILES): CC(C)Cn1cnc2c(N)nc3ccccc3c21 [IMQ, imiquimod]
- pH at which each drug dissolved for loading [1]: 2.06 (20.1)
- removal of drug from beads by repeated washing with deionized water ([2]; DC Bead LUMI): partially removed
- aggregation of drug during washing / elution ([2]; deionized water and saline, microscopy): Aggregation of IMQ was observed; also recorded: formed aggregates; also recorded: exhibited aggregation
- release in saline from DC Bead LUMI after multiple washes in deionized water ([3]; 5 min): 3.738 mg/mL of beads and 1.905 mg/mL of beads and 0.7403 mg/mL of beads
- release in saline from DC Bead LUMI after multiple washes in deionized water ([3]; 15 min): 4.599 mg/mL of beads and 2.598 mg/mL of beads and 1.25 mg/mL of beads
- release in saline from DC Bead LUMI after multiple washes in deionized water ([3]; 30 min): 6.014 mg/mL of beads and 2.518 mg/mL of beads and 1.755 mg/mL of beads
- release in saline from DC Bead LUMI after multiple washes in deionized water ([3]; 45 min): 5.636 mg/mL of beads and 3.25 mg/mL of beads and 2.648 mg/mL of beads
- release in saline from DC Bead LUMI after multiple washes in deionized water ([3]; 60 min): 6.005 mg/mL of beads and 3.196 mg/mL of beads and 2.336 mg/mL of beads
- release in saline from DC Bead LUMI after multiple washes in deionized water ([3]; 120 min): 7.034 mg/mL of beads and 4.188 mg/mL of beads and 2.86 mg/mL of beads
- release in saline from DC Bead LUMI after multiple washes in deionized water ([3]; 180 min): 9.042 mg/mL of beads and 4.426 mg/mL of beads and 3.116 mg/mL of beads
- release in saline from DC Bead LUMI after multiple washes in deionized water ([3]; 240 min): 8.512 mg/mL of beads and 4.6972 mg/mL of beads and 3.19 mg/mL of beads
- release in saline from DC Bead LUMI after multiple washes in deionized water ([3]; 300 min): 8.8991 mg/mL of beads and 4.841 mg/mL of beads and 3.452 mg/mL of beads
- release in saline from DC Bead LUMI after multiple washes in deionized water ([3]; 360 min): 9.596 mg/mL of beads and 5.306 mg/mL of beads and 3.529 mg/mL of beads
- release in saline from DC Bead LUMI after multiple washes in deionized water ([3]; 420 min): 9.49 mg/mL of beads and 5.808 mg/mL of beads and 4.0861 mg/mL of beads
- release in saline from DC Bead LUMI after multiple washes in deionized water ([3]; 480 min): 9.552 mg/mL of beads and 5.445 mg/mL of beads and 3.722 mg/mL of beads
- release in saline from DC Bead LUMI after multiple washes in deionized water ([3]; 1440 min): 10.8637 mg/mL of beads and 7.881 mg/mL of beads and 6.056 mg/mL of beads
- release in saline from DC Bead LUMI after multiple washes in deionized water ([3]; 2880 min): 12.3732 mg/mL of beads and 7.686 mg/mL of beads and 6.267 mg/mL of beads
- release in saline from DC Bead LUMI after multiple washes in deionized water ([3]; 4320 min): 15.5973 mg/mL of beads and 8.751 mg/mL of beads and 7.964 mg/mL of beads
- release in saline from DC Bead LUMI after multiple washes in deionized water ([3]; 8640 min): 14.5448 mg/mL of beads and 10.1106 mg/mL of beads and 7.947 mg/mL of beads
- release behaviour in saline ([3]; DC Bead LUMI): rapid release
- Relative percent drug loaded in DC Bead LUMI over time ([4]; 5 min, single replicates): 27.7169% and 54.7567% and 47.2582%
- Relative percent drug loaded in DC Bead LUMI over time ([4]; 15 min, single replicates): 44.3244% and 64.1912% and 77.4846%
- Relative percent drug loaded in DC Bead LUMI over time ([4]; 30 min, single replicates): 53.7652% and 98.7583% and 64.7248%
- Relative percent drug loaded in DC Bead LUMI over time ([4]; 45 min, single replicates): 63.5604% and 86.8486% and 80.4348%
- Relative percent drug loaded in DC Bead LUMI over time ([4]; 60 min, single replicates): 62.6391% and 89.327% and 89.6722%
- Relative percent drug loaded in DC Bead LUMI over time ([4]; 120 min, single replicates): 76.6569% and 94.7702% and 91.6603%
- Relative percent drug loaded in DC Bead LUMI over time ([4]; 180 min, single replicates): 84.3868% and 95.4708% and 91.4628%
- Relative percent drug loaded in DC Bead LUMI over time ([4]; 240 min, single replicates): 88.4335% and 96.0638% and 91.7809%
- Relative percent drug loaded in DC Bead LUMI over time ([4]; 300 min, single replicates): 89.1562% and 94.7965% and 91.1063%
- Relative percent drug loaded in DC Bead LUMI over time ([4]; 360 min, single replicates): 89.8821% and 93.7278% and 90.6691%
- Relative percent drug loaded in DC Bead LUMI over time ([4]; 420 min, single replicates): 89.552% and 95.0881% and 90.3963%
- Relative percent drug loaded in DC Bead LUMI over time ([4]; 480 min, single replicates): 88.9036% and 95.9382% and 95.3273%
- Relative percent drug loaded in DC Bead LUMI over time ([4]; 1440 min, single replicates): 88.6238% and 94.7298% and 89.6159%
- Relative percent drug loaded in DC Bead LUMI over time ([4]; 2880 min, single replicates): 89.5863% and 97.1979% and 88.3669%
- Relative percent drug loaded in DC Bead LUMI over time ([4]; 4320 min, single replicates): 89.4163% and 95.3897% and 90.7133%
- Relative percent drug loaded in DC Bead LUMI over time ([4]; 8640 min, single replicates): 89.5369% and 92.0678% and 86.7361%
- loading behaviour ([4]; DC Bead LUMI): Fast loading
- Relative percent drug loaded (maximum, percent of SO3− available on a molar basis) ([4]; DC Bead LUMI, mean (n = 3)): 95% and 94.66%
- equivalent of drug loaded to sulfonated bead ([4]; DC Bead LUMI, mean ± SD): 0.27 ± 0.01 mM drug/ml beads
- Maximum drug loaded ([4]; DC Bead LUMI, mean ± SD, n = 3, base form except Dox (salt form)): 65.28 ± 3.09 mg drug/ml beads
- Maximum drug loaded (Triplicate), % ([4]; DC Bead LUMI, single replicates): 89.8821% and 98.7583% and 95.3273%
- Drug: sulfonate ([4]; molar ratio at maximum loading, DC Bead LUMI): 0.946
- Theoretical maximum loading level based on SO3− contents ([4]; per mL DC Bead LUMI, assuming 1:1 drug to sulfonate): 68.97 mg

— publication PMC9763333, “In vitro characterization of immune modulating drug-eluting immunobeads towards transarterial embolization in cancer” (Scientific Reports, 2022)
